Molecular target: T1, human NAPE-PLD (Homo sapiens, UniProt Q6IQ20)
T1 construct: Full length human cDNA NAPE-PLD was obtained from Natsuo Ueda; made in house; host or cells: HEK293T cells, transient transfection (pcDNA3.1); membrane fraction used
Assay: In vitro NAPE-PLD activity assay
Format: biochemical
Conditions: membrane protein fraction of HEK293T cells overexpressing human NAPE-PLD; substrate PED6 1 µM; 30 minutes preincubation at 37 °C
Experimental: Full length human cDNA NAPE-PLD was obtained from Natsuo Ueda^1 and cloned into mammalian expression vector pcDNA3.1, containing a C-terminal Flag-tag and genes for ampicillin and neomycin resistance. All plasmids were grown in XL-10 Z-competent cells and prepped (Maxi Prep, Qiagen). Sequence analysis for the confirmation of the sequences was performed at the Leiden Genome Technology Centre.
HEK293T were cultured at 37 °C and 7% CO2 in DMEM (Sigma Aldrich, D6546) with glutamax, penicillin (100 µg/ml), streptomycin (100 µg/ml) and 10% New Born Calf Serum iron supplemented (Hyclone SH30072.03). Cells were passaged twice a week to appropriate confluence.
24 hours before transfection 10^7 cells are seeded on a 15 cm dish. Two hours before transfection medium is refreshed, low volume. Transfection is performed with PEI in a ratio of 3:1 with human NAPE-PLD or Mock pcDNA3.1 Neo, 20 µg per dish. Medium is refreshed after 24 hours and cells are harvested after 72 hours.
Cell pellets are re-suspended in lysis buffer: 20 mM Hepes, 2 mM DTT, 0.25 M sucrose, 1 mM MgCl2, 2.5 U/ml benzonase and incubated 30 minutes on ice. The cytosolic fraction (supernatant) is separated from the membranes by ultra-centrifugation (32000 rpm for 30 minutes 100,000g). The pellet is resuspended in storage buffer: 20 mM Hepes, 2 mM DTT (membrane fraction). All samples are stored at -80°C. Enzyme concentrations are determined using a Bradford assay.
The NAPE-PLD activity assay is based on a previously reported method with small alterations.^2 The membrane protein fraction from transient overexpression of human NAPE-PLD in HEK293T cells was diluted to 0.4 mg/ml in assay buffer: 50 mM Tris-HCl (pH 7.5), 0.02% Triton X-100, 150 mM NaCl. The substrate PED6 (Invitrogen) 1 mM stock was consecutively diluted in DMSO (10x) and in assay buffer (10x) to make a 10 µM working solution. […] The assay is performed in a dark Greiner 96 wells plate, end volume 100 µl. The compound or DMSO is incubated with membrane protein lysate (final concentration 0.04 mg/ml) for 30 minutes at 37 °C. […] Mock lysate with DMSO is used for background substraction. IC50 curves are generated used Graphpad Prism v6.

T1 sequence (Q6IQ20 whole entry): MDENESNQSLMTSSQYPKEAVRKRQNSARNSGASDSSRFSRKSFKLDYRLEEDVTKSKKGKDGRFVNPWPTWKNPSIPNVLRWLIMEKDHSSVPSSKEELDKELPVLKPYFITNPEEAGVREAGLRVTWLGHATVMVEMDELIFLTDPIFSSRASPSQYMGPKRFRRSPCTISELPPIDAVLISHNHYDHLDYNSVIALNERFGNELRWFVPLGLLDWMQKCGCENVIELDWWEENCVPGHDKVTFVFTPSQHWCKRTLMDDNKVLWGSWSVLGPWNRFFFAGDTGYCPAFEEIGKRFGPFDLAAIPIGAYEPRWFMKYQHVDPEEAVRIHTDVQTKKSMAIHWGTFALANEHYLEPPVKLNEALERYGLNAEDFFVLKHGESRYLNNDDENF

Compound | IC50 [nM]
O=C(NCC1CC1)c1cc(N2CC[C@@H](O)C2)nc(N2CCC[C@H](c3ccccc3)C2)n1 [Example 42, N-(cyclopropylmethyl)-6-((R)-3-hydroxypyrrolidin-1-yl)-2-((R)-3-phenylpiperidin-1-yl)pyrimidine-4-carboxamide] | 324
O=C(NCC1CC1)c1cc(N2CC[C@H](O)C2)nc(N2CCC[C@@H](c3ccccc3)C2)n1 [Example 40, N-(cyclopropylmethyl)-6-((S)-3-hydroxypyrrolidin-1-yl)-2-((S)-3-phenylpiperidin-1-yl)pyrimidine-4-carboxamide] | 72.4
CN(CCc1ccccc1)c1nc(C(=O)NCC2CC2)cc(N2CCCC(F)(F)C2)n1 [Example 86, N-(cyclopropylmethyl)-6-(3,3-difluoropiperidin-1-yl)-2-(methyl(phenethyl)amino)pyrimidine-4-carboxamide] | 389
CN(CCc1cccs1)c1nc(C(=O)NCC2CC2)cc(N2CCOCC2)n1 [Example 22, N-(cyclopropylmethyl)-2-(methyl(2-(thiophen-2-yl)ethyl)amino)-6-morpholinopyrimidine-4-carboxamide] | 1070
CCCCNC(=O)c1cc(N2CCOCC2)nc(N(C)CCc2ccccc2)n1 [Example 9, N-butyl-2-(methyl (phenethyl)amino)-6-morpholinopyrimidine-4-carboxamide] | 6760
O=C(NCC1CC1)c1cc(N2CCOCC2)nc(NCCc2ccccc2)n1 [Example 47, N-(cyclopropylmethyl)-6-morpholino-2-(phenethylamino)pyrimidine-4-carboxamide] | 2750
COc1ccccc1CCN(C)c1nc(C(=O)NCC2CC2)cc(N2CCOCC2)n1 [Example 83, N-(cyclopropylmethyl)-2-((2-methoxyphenethyl)(methyl)amino)-6-morpholinopyrimidine-4-carboxamide] | 776
CC(C)N(CCc1ccccc1)c1nc(C(=O)NCC2CC2)cc(N2CCOCC2)n1 [Example 50, N-(cyclopropylmethyl)-2-(isopropyl(phenethyl)amino)-6-morpholinopyrimidine-4-carboxamide] | 282
O=C(NCC1CC1)c1cc(N2CC[C@@H](O)C2)nc(N2CCC[C@@H](c3ccccc3)C2)n1 [Example 43, N-(cyclopropylmethyl)-6-((R)-3-hydroxypyrrolidin-1-yl)-2-((S)-3-phenylpiperidin-1-yl)pyrimidine-4-carboxamide] | 110
O=C(NCC1CC1)c1cc(N2CCOCC2)nc(N2CCCC(c3ccccc3)C2)n1 (centres unmarked) [Example 52, N-(cyclopropylmethyl)-6-morphol ino-2-(3-phenylpiperidin-1-yl)pyrimidine-4-carboxamide] | 380
CN(CCc1ccccc1-c1ccccc1)c1nc(C(=O)NCC2CC2)cc(N2CCOCC2)n1 [Example 71, 2-((2-([1,1'-biphenyl]-2-yl)ethyl)(methyl)amino)-N-(cyclopropylmethyl)-6-morpholino-pyrimidine-4-carboxamide] | 490
Cc1ccccc1CCN(C)c1nc(C(=O)NCC2CC2)cc(N2CCOCC2)n1 [Example 78, N-(cyclopropylmethyl)-2-(methyl(2-methylphenethyl)amino)-6-morpholinopyrimidine-4-carboxamide] | 891
COc1ccc(CCN(C)c2nc(C(=O)NCC3CC3)cc(N3CCOCC3)n2)cc1 [Example 64, N-(cyclopropylmethyl)-2-((4-methoxyphenethyl)(methyl)amino)-6-morpholinopyrimidine-4-carboxamide] | 3470
O=C(NCC1CC1)c1cc(N2CCOCC2)nc(N2CCC[C@@H](c3ccccc3)C2)n1 [Example 46, (S)-N-(cyclopropylmethyl)-6-morpholino-2-(3-phenylpiperidin-1-yl)pyrimidine-4-carboxamide] | 209
CN(CCCc1ccccc1)c1nc(C(=O)NCC2CC2)cc(N2CCOCC2)n1 [Example 58, N-(cyclopropylmethyl)-2-(methyl(3-phenylpropyl)amino)-6-morpholinopyrimidine-4-carboxamide] | 3160
CN(CCc1cccc(Oc2ccccc2)c1)c1nc(C(=O)NCC2CC2)cc(N2CCOCC2)n1 [Example 61, N-(cyclopropylmethyl)-2-(methyl(3-phenoxyphenethyl)amino)-6-morpholinopyrimidine-4-carboxamide] | 3470

Compound | IC50 [nM]
CN(CCc1ccccc1)c1cc(N2CCOCC2)cc(C(=O)NCC2CC2)n1 [Example 79, N-(cyclopropylmethyl)-6-(methyl(phenethyl)amino)-4-morpholinopicolinamide] | 10500
CCNC(=O)c1cc(N2CCOCC2)nc(N(C)CCc2ccccc2)n1 [Example 4, N-ethyl-2-(methyl (phenethyl)amino)-6-morpholinopyrimidine-4-carboxamide] | 4570
CN(C)c1cc(C(=O)NCC2CC2)nc(N(C)CCc2ccccc2)n1 [Example 76, N-(cyclopropylmethyl)-6-(dimethylamino)-2-(methyl(phenethyl)amino)pyrimidine-4-carboxamide] | 288
CN(CCc1ccccc1)c1nc(C(=O)NCC2CC2)cc(N2CCCCC2)n1 [Example 3, N-(cyclopropylmethyl)-2-(methyl(phenethyl)amino)-6-(piperidin-1-yl)pyrimidine-4-carboxamide] | 646
O=C(NCC1CC1)c1cc(N2CCOCC2)nc(N(CCc2ccccc2)Cc2ccccc2)n1 [Example 65, 2-(benzyl(phenethyl)amino)-N-(cyclopropylmethyl)-6-morpholinopyrimidine-4-carboxamide] | 1120
C#CCNC(=O)c1cc(N2CCOCC2)nc(N(C)CCc2ccccc2)n1 [Example 8, 2-(methyl(phenethyl)amino)-6-morpholino-N-(prop-2-yn-1-yl)pyrimidine-4-carboxamide] | 912
O=C(NCC1CC1)c1cc(N2CCOCC2)nc(N2CCCCC2Cc2ccccc2)n1 (centres unmarked) [Example 54, 2-(2-benzylpiperidin-1-yl)-N-(cyclopropylmethyl)-6-morpholinopyrimidine-4-carboxamide] | 741
CN(CCc1ccccc1)c1nc(C(=O)NCC2CC2)cc(N2CCOCC2)n1 [Example 49, N-(cyclopropylmethyl)-2-(methyl(phenethyl)amino)-6-morpholinopyrimidine-4-carboxamide] | 708
O=C(NCC1CC1)c1cc(N2CCOCC2)nc(N2CCN(C(=O)OCc3ccccc3)C(c3ccccc3)C2)n1 (centres unmarked) [Example 74, benzyl 4-(4-((cyclopropylmethyl)carbamoyl)-6-morpholinopyrimidin-2-yl)-2-phenylpiperazine-1-carboxylate] | 3240
CN(CCc1ccccc1)c1nc(C(=O)NCC2CC2)cc(-n2ccnc2)n1 [Example 23, N-(cyclopropylmethyl)-6-(1H-imidazol-1-yl)-2-(methyl(phenethyl)amino)pyrimidine-4-carboxamide] | 2240
O=C(NCC1CC1)c1cc(N2CCOCC2)nc(N2CCCC2Cc2ccccc2)n1 (centres unmarked) [Example 59, 2-(2-benzylpyrrolidin-1-yl)-N-(cyclopropylmethyl)-6-morpholinopyrimidine-4-carboxamide] | 380
CN(CCc1ccccc1)c1nc(C(=O)NCC2CC2)cc(N2CCC(O)C2)n1 (centres unmarked) [Example 32, N-(cyclopropylmethyl)-6-(3-hydroxypyrrolidin-1-yl)-2-(methyl(phenethyl)amino)pyrimidine-4-carboxamide] | 224
O=C(NCC1CC1)c1cc(N2CCOCC2)nc(N2CCOC(c3ccccc3)C2)n1 (centres unmarked) [Example 37, N-(cyclopropylmethyl)-6-morpholino-2-(2-phenylmorpholino)pyrimidine-4-carboxamide] | 1230
CNc1cc(C(=O)NCC2CC2)nc(N(C)CCc2ccccc2)n1 [Example 21, N-(cyclopropylmethyl)-2-(methyl(phenethyl)amino)-6-(methylamino)pyrimidine-4-carboxamide] | 851
CN(CCc1ccccn1)c1nc(C(=O)NCC2CC2)cc(N2CCOCC2)n1 [Example 84, N-(cyclopropylmethyl)-2-(methyl(2-(pyridin-2-yl)ethyl)amino)-6-morpholinopyrimidine-4-carboxamide] | 12900
O=C(NCC1CC1)c1cc(N2CCOCC2)nc(N2CCc3ccccc3C2)n1 [Example 63, N-(cyclopropylmethyl)-2-(3,4-dihydroisoquinolin-2(1H)-yl)-6-morphol inopyrimidine-4-carboxamide] | 2240

Reference: patent EP3575287A1, “INHIBITORS OF N-ACYLPHOSPHATIDYLETHANOLAMINE PHOSPHOLIPASE D (NAPE-PLD)” (Universiteit Leiden, priority 2018, dated 2019)
